The results in this text go back to patent publication US11166924B2, “N-methyl-d-aspartate receptor allosteric modulators and methods for their use” (Qingdao Primedicine Pharmaceutical Company, Ltd., priority 2016, dated 2021).

SMILES strings stand for the structures. Read-outs that look alike come from different tables or passages of the source.

Assay type in all cases: cell-based
Test [1] has as its target T1, GluN1/GluN2A NMDARs (Rattus norvegicus, UniProt P35439+Q00959).
T1 construct: expressed in transfected cells; host or cells: HEK293
Description: Whole-cell patch clamp recordings in HEK293 cells transfected with GluN1/GluN2A. The following applies: for Enhancement of NMDA-mediated currents: compared to glutamate alone; for Selectivity for GluN1/GluN2A versus GluN1/GluN2B NMDARs: FIG. 2, HEK293 cells expressing GluN1/GluN2A and GluN1/GluN2B; for Normalized Potentiation: positive modulation of GluN1/GluN2A NMDARs, concentration not given. The essentials:
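Rat GluN1/GluN2A (1:1) transiently expressed in HEK293, recorded 48 h post-transfection by whole-cell voltage clamp at −60 mV, room temperature. CsCl/BAPTA pipette solution, pH 7.4 bath, glutamate/NMDA-evoked currents by fast perfusion. ≥6 cells per compound; EC50, relative efficacy versus maximal glutamate response and Hill slope from pooled dose-response fits.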
(The patch-clamp technique gives a direct electrical read-out from membranes.)

The target of test [2] is T2, GluN1/GluN2A^Q111A (Rattus norvegicus, UniProt P35439+Q00959, Q111A).
T2 construct: expressed in transfected cells; host or cells: HEK293
T2 sequence (Q00959 23-1464 Q111A, other chains not shown): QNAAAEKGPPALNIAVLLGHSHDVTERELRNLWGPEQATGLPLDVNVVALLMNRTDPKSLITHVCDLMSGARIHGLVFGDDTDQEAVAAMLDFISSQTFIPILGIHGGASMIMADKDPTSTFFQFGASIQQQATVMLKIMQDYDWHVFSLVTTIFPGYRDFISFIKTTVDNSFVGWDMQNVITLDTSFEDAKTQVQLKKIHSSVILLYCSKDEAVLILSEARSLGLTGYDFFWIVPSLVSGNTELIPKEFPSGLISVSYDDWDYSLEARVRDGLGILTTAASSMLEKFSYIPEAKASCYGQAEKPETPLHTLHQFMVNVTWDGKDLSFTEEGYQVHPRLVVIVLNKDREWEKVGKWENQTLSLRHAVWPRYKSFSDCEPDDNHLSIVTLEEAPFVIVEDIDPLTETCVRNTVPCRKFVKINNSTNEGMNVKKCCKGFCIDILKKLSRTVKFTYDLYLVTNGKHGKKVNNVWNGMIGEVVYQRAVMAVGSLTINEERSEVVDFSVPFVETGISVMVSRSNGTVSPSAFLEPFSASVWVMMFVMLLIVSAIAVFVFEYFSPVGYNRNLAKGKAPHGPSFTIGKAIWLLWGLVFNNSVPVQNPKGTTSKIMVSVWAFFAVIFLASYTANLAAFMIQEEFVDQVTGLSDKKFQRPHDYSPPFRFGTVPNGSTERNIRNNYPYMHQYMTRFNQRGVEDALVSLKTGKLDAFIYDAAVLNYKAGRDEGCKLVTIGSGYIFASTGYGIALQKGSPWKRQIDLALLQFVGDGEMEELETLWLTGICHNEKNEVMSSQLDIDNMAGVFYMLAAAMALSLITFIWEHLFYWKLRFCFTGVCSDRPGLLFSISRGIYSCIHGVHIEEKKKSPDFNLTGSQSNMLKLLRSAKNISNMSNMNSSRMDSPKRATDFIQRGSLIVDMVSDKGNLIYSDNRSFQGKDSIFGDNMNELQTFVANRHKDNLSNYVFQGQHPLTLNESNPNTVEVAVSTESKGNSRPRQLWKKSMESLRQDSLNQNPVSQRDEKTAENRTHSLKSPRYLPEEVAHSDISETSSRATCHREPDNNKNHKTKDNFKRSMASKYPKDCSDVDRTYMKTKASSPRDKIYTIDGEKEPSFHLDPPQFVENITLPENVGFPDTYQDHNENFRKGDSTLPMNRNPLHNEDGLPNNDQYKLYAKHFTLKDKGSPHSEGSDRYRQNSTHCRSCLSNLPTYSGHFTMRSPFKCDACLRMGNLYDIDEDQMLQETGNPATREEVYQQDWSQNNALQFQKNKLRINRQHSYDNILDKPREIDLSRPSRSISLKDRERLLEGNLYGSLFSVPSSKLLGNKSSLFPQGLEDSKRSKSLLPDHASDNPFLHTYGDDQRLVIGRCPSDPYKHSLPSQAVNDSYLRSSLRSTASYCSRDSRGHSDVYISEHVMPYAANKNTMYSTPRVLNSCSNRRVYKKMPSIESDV
Description: Patch clamp in HEK293 cells expressing mutant GluN1/GluN2A Q111A. Here is the method:
(§1) Whole cell patch-clamp recordings were performed under voltage-clamp mode using an Axopatch 200B or 1D patch-clamp amplifier (Molecular Devices). Whole-cell currents were recorded at a holding potential of −60 mV unless indicated elsewhere, and signals were filtered at 2 kHz, digitized at 10 kHz (Digidata 1322A). Recording pipettes (3-5 MΩ) were filled with intracellular solution containing (mM): CsCl 140, HEPES 10, Mg-ATP 4, QX-314 5, pH 7.20; osmolarity, 290-295 mOsm. BAPTA (10 mM) was added in the intracellular solution (unless otherwise specified). The coverslips were continuously superfused with extracellular solution containing (mM): NaCl 140, KCl 5.4, HEPES 10, CaCl2 1.3, glucose 20, pH 7.4; osmolarity, 305-315 mOsm. NMDA-induced currents were applied by NMDA through perfusion fast-step (Warner Instruments). With perfusion fast-step system, NMDA application was achieved by using a two-square barrel glass tubing and depending on the age of the cultured neurons, CNQX (10 μM), TTX (0.5 μM) or BIC (10 μM) were added in the extracellular solution to minimize the activation of ionotropic glutamate receptors and voltage-gated sodium channels, respectively. All experiments were performed at room temperature. Recordings from at least six HEK293 cells/neurons were performed for all active compounds. Data were pooled among HEK293 cells or primary neurons and composite dose-response data were fitted by the equation Percentage Response=100×Relative Efficacy/[1+(EC50/Concentration)nH], where EC50 is the concentration of agonist that produces a half-maximal response, relative efficacy is the response at maximally effective concentration relative to the maximal response of glutamate, and nH is the Hill slope.
(§2) The site-directed mutagenesis of GluN1 or GluN2A subunits were performed by using the QuikChange method (Stratagene). All mutant clones were confirmed by DNA sequencing. Wild-type or mutant subunits were transfected in HEK293 cells and subjected to electrophysiology examinations. […]

Test [3] has as its target T3, GluN1/GluN2B NMDARs (Rattus norvegicus, UniProt P35439+Q00960).
T3 construct: expressed in transfected cells; host or cells: HEK293
Kind of test: Whole-cell patch clamp recordings in HEK293 cells transfected with GluN1/GluN2B.

In test [4] the target is NMDARs in cultured hippocampal neurons (Rattus norvegicus, UniProt P35439+Q00959). Kind of test: Whole-cell voltage clamp recordings of NMDAR currents in cultured hippocampal/cortical neurons.
NMDARs in cultured hippocampal neurons, sequence (Q00959 23-1464, other chains not shown): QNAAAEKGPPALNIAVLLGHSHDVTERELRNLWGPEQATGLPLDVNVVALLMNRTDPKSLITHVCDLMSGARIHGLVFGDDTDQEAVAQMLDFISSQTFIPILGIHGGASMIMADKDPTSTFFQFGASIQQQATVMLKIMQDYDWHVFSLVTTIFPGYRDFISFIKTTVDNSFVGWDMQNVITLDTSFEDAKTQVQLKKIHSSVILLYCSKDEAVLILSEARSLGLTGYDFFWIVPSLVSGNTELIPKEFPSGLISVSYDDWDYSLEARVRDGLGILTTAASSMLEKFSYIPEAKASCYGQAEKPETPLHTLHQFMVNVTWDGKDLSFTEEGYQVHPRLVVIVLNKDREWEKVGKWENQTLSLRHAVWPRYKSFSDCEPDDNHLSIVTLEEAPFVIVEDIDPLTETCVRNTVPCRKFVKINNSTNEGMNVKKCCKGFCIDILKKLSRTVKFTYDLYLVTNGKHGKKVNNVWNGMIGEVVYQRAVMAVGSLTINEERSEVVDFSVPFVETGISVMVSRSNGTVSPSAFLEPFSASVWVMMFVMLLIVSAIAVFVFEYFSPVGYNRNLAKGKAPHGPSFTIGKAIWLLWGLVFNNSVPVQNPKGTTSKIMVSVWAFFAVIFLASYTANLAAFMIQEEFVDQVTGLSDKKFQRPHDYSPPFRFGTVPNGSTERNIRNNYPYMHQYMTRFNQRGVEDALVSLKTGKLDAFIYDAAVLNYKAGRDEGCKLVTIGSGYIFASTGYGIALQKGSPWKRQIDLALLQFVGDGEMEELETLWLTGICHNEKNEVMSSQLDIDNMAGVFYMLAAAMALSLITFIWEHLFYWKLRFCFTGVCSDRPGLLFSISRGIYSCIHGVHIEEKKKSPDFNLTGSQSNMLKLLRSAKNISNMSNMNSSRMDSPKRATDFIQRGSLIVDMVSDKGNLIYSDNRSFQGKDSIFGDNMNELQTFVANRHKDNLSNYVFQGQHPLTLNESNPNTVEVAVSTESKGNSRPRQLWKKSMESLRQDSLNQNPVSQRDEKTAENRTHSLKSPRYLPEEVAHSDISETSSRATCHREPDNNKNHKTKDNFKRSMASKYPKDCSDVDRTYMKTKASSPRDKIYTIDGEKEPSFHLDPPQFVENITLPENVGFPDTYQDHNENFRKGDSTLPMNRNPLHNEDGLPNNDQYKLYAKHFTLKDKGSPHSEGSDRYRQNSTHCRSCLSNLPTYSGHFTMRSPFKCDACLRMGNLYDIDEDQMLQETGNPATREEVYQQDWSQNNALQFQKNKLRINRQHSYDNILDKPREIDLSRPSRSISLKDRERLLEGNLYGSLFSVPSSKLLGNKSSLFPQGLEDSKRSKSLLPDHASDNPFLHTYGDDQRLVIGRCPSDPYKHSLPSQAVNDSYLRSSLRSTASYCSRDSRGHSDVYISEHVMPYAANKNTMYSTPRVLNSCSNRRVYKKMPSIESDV
The target in test [5] is T4, GluN1/GluN2A^F177S (Rattus norvegicus, UniProt P35439+Q00959, F177S).
T4 construct: expressed in transfected cells; host or cells: HEK293
Description: Patch clamp in HEK293 cells expressing mutant GluN1/GluN2A F177S. As for the experimental part:
as §1, §2

T1 sequence (Q00959 23-1464, other chains not shown): as above

As to `COc1cccc(/C=N/NC(=O)c2ccccc2C)c1O` [Npam02, (E)-N′-(2-hydroxy-3-methoxybenzylidene)-2-methylbenzohydrazide], the “Currents induced by compound applied alone” value in test [1] (100 μM alone) was “no changes of inward or outward currents”. Moreover, the “Enhancement of NMDA-mediated currents” value in test [1] (100 μM co-applied with co-agonists) was 38.85±3.70%; in test [1] (200 μM co-applied with co-agonists), 71.69±5.03%. For the same molecule, in test [1] (100 μM, wild-type GluN1/GluN2A, FIG. 8c), the “Modulation effect, wild-type” value is given as 41.75±2.62%. Moreover, in test [1], the “Selectivity for GluN1/GluN2A versus GluN1/GluN2B NMDARs” value was “selective for GluN1/GluN2A NMDARs”. Besides, in test [1] (Table 1), the “Normalized Potentiation” value is reported as 243.57 ± 24.81%. For the same molecule, the “Modulation effect, GluN2A Gln111Ala” value in test [2] (100 μM, FIG. 8c) was determined as 30.69±1.60%. Also, the results for the “Currents induced by compound on its own” value in test [3] and in test [4] were “did not induce currents on its own” and “not able to induce inward or outward currents on its own”, respectively. Also, the “Potentiation of NMDAR currents” value in test [3] (100 μM) was “did not exhibit potentiation of NMDAR currents”. Moreover, the activation at 100 µM in test [3] (HEK293, Table 2, 100 μM, read-out: Normalized Potentiation GluN1/GluN2B) is -4.82 ± 2.83%; in test [4] (100 μM bath, NMDA 5 uM, glycine 2 μM, compared to NMDA control, read-out: Modulation of NMDAR currents) it was 43 ± 6.55%. Moreover, the “Modulation effect, GluN2A Phe177Ser” value in test [5] (100 μM, FIG. 8c) was 22.86±1.12%.

Take `CCOc1cc(Cl)c(Cl)c(/C=N/NC(=O)c2ccccc2Br)c1O` [Npam43, (E)-2-bromo-N′-(2,3-dichloro-5-ethoxy-6-hydroxybenzylidene)benzohydrazide]: in test [1], the “Currents evoked by compound on its own” value is “did not evoke currents on its own”. In test [1] (10 μM co-applied with co-agonists), the “Enhancement of NMDA-mediated currents” value was “dramatically enhanced”. Moreover, the “Selectivity for GluN1/GluN2A versus GluN1/GluN2B NMDARs” value in test [1] is given as “selective for GluN1/GluN2A NMDARs”. The “Normalized Potentiation” value in test [1] (Table 1) is reported as 363.52 ± 27.3%. For the same molecule, the EC50 in test [1] (Table 1, potentiation, read-out: EC50) was 270 nM; in test [1] (dose-response, FIG. 9, read-out: EC50 of enhancement of GluN1/GluN2A currents), 240 ± 50 nM; in test [1] (dose-response, FIG. 9, read-out: pEC50 of enhancement of GluN1/GluN2A currents (converted)), ~243 nM. For the same molecule, the Relative potentiation is reported as 209 ± 6.7% in test [1] (Table 3, GluN1^WT/GluN2A^WT); 129 ± 6.7% in test [2] (Table 3, GluN2A Q111A); 79.9 ± 2.6% in test [5] (Table 3, GluN2A F177S). Also, the “Saturation of enhancement relative to co-agonists alone baseline” value in test [1] (dose-response, FIG. 9) was ~350%. The “Net Difference potentiation” value in test [2] (GluN2A Q111A, normalized to Npam43 response in wild-type GluN1/GluN2A) is −38.4±0.78%; in test [5] (GluN2A F177S, normalized to wild-type), −61.7 ± 0.03%. Further, the “Potentiation of NMDAR currents” value in test [3] (10 μM) was “did not exhibit potentiation”. The “Dose-dependent enhancement of currents” value in test [3] (GluN2B-containing NMDARs recordings) is reported as “No dose-dependent enhancement of currents”. Besides, in test [4] (10 μM, read-out: Potentiation at saturation point, above control level baseline), the activation at 10 µM is 322 ± 27%. The “Selective potentiation of GluN1/GluN2A NMDARs in hippocampal neurons” value in test [4] (FIG. 12, with ifenprodril, NVP-AAM077, AP5 controls) was “selectively potentiates GluN1/GluN2A NMDARs”. Also, the “Shift of NMDA dose-response curve” value in test [4] (Npam43 5 μM) is given as “shifted left”.
